Patent US12227500B2, “Substituted pyrrolo[2,3-b]pyridines for suppressing toxic endoplasmic reticulum stress” (THE TRUSTEES OF COLUMBIA UNIVERSITY IN THE CITY OF NEW YORK, priority 2018, dated 2025)

How the values were obtained:
Assay in all cases: Radiolabeled ATP kinase assay, panel of 371 kinases (Table S6)
Format in all cases: biochemical
[1] = molecular target: T1, panel of 371 human kinases (Homo sapiens, UniProt Q9NYY3); conditions: PLK2; 0.1 μM; 10 μM ATP; read-out: % Enzyme Activity (relative to DMSO controls)
T1 construct: purchased Reaction Biology Corp
Text: (§1) ; FIG. 38C). […]. Further targeted analyses, such as genetic knock-down or knock-out, may be warranted to parse the role of these additional kinases in our model of neurodegeneration.

[2] = molecular target: T2, panel of 371 human kinases (Homo sapiens, UniProt Q9H093); conditions: SNARK/NUAK2; 0.1 μM; 10 μM ATP; read-out: % Enzyme Activity (relative to DMSO controls)
T2 construct: purchased Reaction Biology Corp
Text: as §1

[3] = molecular target: T3, panel of 371 human kinases (Homo sapiens, UniProt P20794); conditions: MAK; 0.1 μM; 10 μM ATP; read-out: % Enzyme Activity (relative to DMSO controls)
T3 construct: purchased Reaction Biology Corp
Text: as §1

[4] = molecular target: T4, panel of 371 human kinases (Homo sapiens, UniProt Q05655); conditions: PKCd; 0.1 μM; 10 μM ATP; read-out: % Enzyme Activity (relative to DMSO controls)
T4 construct: purchased Reaction Biology Corp
T4 sequence (Q05655 whole entry): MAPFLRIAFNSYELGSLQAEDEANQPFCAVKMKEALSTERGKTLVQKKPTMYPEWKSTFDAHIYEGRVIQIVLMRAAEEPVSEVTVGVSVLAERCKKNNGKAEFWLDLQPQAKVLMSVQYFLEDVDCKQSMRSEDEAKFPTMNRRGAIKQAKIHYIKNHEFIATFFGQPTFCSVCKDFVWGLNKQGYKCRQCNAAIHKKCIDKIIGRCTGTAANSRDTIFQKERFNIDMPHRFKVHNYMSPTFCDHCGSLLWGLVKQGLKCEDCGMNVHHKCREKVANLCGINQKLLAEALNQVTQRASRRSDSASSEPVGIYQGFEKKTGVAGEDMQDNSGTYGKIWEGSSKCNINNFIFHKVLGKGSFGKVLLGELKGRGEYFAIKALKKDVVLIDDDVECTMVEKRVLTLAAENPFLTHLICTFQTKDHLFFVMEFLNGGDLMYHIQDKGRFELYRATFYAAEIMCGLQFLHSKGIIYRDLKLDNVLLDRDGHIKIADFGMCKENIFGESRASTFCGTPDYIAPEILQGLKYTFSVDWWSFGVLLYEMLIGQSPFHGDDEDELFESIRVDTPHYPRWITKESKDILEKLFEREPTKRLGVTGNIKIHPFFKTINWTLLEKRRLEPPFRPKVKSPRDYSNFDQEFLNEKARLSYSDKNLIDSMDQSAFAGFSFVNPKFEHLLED
Text: as §1

[5] = molecular target: T5, panel of 371 human kinases (Homo sapiens, UniProt P57059); conditions: SIK1; 0.1 μM; 10 μM ATP; read-out: % Enzyme Activity (relative to DMSO controls)
T5 construct: purchased Reaction Biology Corp
T5 sequence (P57059 whole entry): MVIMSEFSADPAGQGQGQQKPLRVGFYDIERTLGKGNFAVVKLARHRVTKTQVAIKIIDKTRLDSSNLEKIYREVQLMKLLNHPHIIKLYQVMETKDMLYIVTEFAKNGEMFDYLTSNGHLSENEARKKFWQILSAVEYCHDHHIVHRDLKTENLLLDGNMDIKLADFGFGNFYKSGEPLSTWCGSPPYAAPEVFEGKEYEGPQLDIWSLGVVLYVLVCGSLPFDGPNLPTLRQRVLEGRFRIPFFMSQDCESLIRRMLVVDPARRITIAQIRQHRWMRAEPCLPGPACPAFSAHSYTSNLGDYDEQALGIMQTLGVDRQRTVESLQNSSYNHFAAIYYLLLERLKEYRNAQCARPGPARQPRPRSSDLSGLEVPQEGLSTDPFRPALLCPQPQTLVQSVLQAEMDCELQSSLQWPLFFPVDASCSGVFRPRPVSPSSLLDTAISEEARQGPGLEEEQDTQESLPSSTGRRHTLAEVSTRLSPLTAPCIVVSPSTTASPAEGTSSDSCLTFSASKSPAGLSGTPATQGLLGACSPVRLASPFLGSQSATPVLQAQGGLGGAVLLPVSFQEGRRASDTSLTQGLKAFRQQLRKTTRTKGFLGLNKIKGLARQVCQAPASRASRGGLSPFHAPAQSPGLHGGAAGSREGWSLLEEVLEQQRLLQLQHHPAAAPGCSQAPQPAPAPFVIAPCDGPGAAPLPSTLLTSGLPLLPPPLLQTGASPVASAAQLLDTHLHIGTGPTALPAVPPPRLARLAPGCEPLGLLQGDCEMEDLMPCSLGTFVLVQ
Text: as §1

[6] = molecular target: T6, panel of 371 human kinases (Homo sapiens, UniProt Q14680); conditions: MELK; 0.1 μM; 10 μM ATP; read-out: % Enzyme Activity (relative to DMSO controls)
T6 construct: purchased Reaction Biology Corp
T6 sequence (Q14680 whole entry): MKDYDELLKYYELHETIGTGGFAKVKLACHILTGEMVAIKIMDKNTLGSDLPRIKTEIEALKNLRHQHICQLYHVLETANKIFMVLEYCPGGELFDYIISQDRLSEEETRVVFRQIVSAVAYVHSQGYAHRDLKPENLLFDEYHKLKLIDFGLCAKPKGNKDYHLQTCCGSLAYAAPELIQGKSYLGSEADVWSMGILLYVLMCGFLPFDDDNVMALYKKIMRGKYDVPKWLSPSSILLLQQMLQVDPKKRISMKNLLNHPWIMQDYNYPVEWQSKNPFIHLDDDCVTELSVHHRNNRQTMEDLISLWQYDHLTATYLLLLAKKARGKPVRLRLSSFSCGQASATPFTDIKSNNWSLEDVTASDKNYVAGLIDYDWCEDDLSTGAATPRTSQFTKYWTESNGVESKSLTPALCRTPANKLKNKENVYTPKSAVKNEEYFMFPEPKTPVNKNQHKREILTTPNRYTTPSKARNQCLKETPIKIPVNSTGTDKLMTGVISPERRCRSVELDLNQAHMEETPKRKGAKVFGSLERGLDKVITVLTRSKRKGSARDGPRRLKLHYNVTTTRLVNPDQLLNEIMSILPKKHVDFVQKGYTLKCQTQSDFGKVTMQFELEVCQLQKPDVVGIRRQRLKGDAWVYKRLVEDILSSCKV
Text: as §1

[7] = molecular target: T7, panel of 371 human kinases (Homo sapiens, UniProt P08069); conditions: IGF1R; 0.1 μM; 10 μM ATP; read-out: % Enzyme Activity (relative to DMSO controls)
T7 construct: purchased Reaction Biology Corp
Text: as §1

[8] = molecular target: T8, panel of 371 human kinases (Homo sapiens, UniProt O15146); conditions: MUSK; 0.1 μM; 10 μM ATP; read-out: % Enzyme Activity (relative to DMSO controls)
T8 construct: purchased Reaction Biology Corp
Text: as §1

[9] = molecular target: T9, panel of 371 human kinases (Homo sapiens, UniProt Q04912); conditions: RON/MST1R; 0.1 μM; 10 μM ATP; read-out: % Enzyme Activity (relative to DMSO controls)
T9 construct: purchased Reaction Biology Corp
Text: as §1

[10] = molecular target: T10, panel of 371 human kinases (Homo sapiens, UniProt P51813); conditions: BMX/ETK; 0.1 μM; 10 μM ATP; read-out: % Enzyme Activity (relative to DMSO controls)
T10 construct: purchased Reaction Biology Corp
Text: as §1

[11] = molecular target: T11, panel of 371 human kinases (Homo sapiens, UniProt P07949); conditions: RET; 0.1 μM; 10 μM ATP; read-out: % Enzyme Activity (relative to DMSO controls)
T11 construct: purchased Reaction Biology Corp
Text: as §1

[12] = molecular target: T12, panel of 371 human kinases (Homo sapiens, UniProt Q00536); conditions: CDK16/cyclin Y (PCTAIRE); 0.1 μM; 10 μM ATP; read-out: % Enzyme Activity (relative to DMSO controls)
T12 construct: purchased Reaction Biology Corp
T12 sequence (Q00536 whole entry): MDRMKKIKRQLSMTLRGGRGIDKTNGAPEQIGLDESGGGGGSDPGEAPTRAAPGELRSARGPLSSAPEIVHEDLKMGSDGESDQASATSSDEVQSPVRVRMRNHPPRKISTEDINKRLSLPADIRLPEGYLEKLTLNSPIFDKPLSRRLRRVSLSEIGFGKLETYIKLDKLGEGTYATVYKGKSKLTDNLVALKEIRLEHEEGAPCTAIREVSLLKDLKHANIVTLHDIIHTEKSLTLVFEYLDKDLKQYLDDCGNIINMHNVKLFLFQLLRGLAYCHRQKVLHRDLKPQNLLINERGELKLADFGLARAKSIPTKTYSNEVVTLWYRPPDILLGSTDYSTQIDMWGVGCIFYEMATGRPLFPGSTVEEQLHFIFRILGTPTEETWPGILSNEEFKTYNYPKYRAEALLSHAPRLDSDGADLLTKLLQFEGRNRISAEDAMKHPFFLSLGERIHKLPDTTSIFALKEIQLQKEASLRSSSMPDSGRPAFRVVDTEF
Text: as §1

[13] = molecular target: T13, panel of 371 human kinases (Homo sapiens, UniProt P04626); conditions: ERBB2/HER2; 0.1 μM; 10 μM ATP; read-out: % Enzyme Activity (relative to DMSO controls)
T13 construct: purchased Reaction Biology Corp
Text: as §1

[14] = molecular target: T14, panel of 371 human kinases (Homo sapiens, UniProt O00444); conditions: PLK4/SAK; 0.1 μM; 10 μM ATP; read-out: % Enzyme Activity (relative to DMSO controls)
T14 construct: purchased Reaction Biology Corp
Text: as §1

[15] = molecular target: T15, panel of 371 human kinases (Homo sapiens, UniProt O95382); conditions: MEKK6; 0.1 μM; 10 μM ATP; read-out: % Enzyme Activity (relative to DMSO controls)
T15 construct: purchased Reaction Biology Corp
Text: as §1

[16] = molecular target: T16, panel of 371 human kinases (Homo sapiens, UniProt Q9BWU1); conditions: CDK19/cyclin C; 0.1 μM; 10 μM ATP; read-out: % Enzyme Activity (relative to DMSO controls)
T16 construct: purchased Reaction Biology Corp
Text: as §1

[17] = molecular target: T17, panel of 371 human kinases (Homo sapiens, UniProt Q13163); conditions: MEK5; 0.1 μM; 10 μM ATP; read-out: % Enzyme Activity (relative to DMSO controls)
T17 construct: purchased Reaction Biology Corp
Text: as §1

[18] = molecular target: T18, panel of 371 human kinases (Homo sapiens, UniProt P54753); conditions: EPHB3; 0.1 μM; 10 μM ATP; read-out: % Enzyme Activity (relative to DMSO controls)
T18 construct: purchased Reaction Biology Corp
T18 sequence (P54753 34-998): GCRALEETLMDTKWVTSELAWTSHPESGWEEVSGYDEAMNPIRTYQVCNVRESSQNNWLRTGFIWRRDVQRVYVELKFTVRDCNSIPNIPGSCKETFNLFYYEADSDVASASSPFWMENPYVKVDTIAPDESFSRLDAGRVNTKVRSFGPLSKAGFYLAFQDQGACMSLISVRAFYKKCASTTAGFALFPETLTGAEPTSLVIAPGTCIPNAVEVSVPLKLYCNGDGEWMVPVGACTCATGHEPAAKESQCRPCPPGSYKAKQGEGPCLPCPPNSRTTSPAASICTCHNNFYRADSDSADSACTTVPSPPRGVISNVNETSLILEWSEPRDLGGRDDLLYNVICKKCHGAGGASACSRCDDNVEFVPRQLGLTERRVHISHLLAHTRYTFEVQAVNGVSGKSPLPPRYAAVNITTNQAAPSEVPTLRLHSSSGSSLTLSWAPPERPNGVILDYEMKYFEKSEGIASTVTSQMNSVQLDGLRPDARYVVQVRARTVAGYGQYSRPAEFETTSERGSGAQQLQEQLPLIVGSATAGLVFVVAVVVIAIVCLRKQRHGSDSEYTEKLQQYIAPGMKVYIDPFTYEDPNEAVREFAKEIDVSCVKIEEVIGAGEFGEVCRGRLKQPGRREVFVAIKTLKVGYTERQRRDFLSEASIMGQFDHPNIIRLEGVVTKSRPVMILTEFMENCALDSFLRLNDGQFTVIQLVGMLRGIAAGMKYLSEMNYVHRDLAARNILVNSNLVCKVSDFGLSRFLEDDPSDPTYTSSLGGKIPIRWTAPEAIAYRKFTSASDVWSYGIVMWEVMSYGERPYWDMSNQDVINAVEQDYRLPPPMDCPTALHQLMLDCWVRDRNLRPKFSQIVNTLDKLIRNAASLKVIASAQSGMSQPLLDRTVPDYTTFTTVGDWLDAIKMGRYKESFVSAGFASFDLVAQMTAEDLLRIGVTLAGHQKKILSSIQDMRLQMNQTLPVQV
Text: as §1

[19] = molecular target: T19, panel of 371 human kinases (Homo sapiens, UniProt Q9Y5S2); conditions: MRCKb/CDC42BPB; 0.1 μM; 10 μM ATP; read-out: % Enzyme Activity (relative to DMSO controls)
T19 construct: purchased Reaction Biology Corp
Text: as §1

[20] = molecular target: T20, panel of 371 human kinases (Homo sapiens, UniProt Q13233); conditions: MEKK1; 0.1 μM; 10 μM ATP; read-out: % Enzyme Activity (relative to DMSO controls)
T20 construct: purchased Reaction Biology Corp
T20 sequence (Q13233 whole entry): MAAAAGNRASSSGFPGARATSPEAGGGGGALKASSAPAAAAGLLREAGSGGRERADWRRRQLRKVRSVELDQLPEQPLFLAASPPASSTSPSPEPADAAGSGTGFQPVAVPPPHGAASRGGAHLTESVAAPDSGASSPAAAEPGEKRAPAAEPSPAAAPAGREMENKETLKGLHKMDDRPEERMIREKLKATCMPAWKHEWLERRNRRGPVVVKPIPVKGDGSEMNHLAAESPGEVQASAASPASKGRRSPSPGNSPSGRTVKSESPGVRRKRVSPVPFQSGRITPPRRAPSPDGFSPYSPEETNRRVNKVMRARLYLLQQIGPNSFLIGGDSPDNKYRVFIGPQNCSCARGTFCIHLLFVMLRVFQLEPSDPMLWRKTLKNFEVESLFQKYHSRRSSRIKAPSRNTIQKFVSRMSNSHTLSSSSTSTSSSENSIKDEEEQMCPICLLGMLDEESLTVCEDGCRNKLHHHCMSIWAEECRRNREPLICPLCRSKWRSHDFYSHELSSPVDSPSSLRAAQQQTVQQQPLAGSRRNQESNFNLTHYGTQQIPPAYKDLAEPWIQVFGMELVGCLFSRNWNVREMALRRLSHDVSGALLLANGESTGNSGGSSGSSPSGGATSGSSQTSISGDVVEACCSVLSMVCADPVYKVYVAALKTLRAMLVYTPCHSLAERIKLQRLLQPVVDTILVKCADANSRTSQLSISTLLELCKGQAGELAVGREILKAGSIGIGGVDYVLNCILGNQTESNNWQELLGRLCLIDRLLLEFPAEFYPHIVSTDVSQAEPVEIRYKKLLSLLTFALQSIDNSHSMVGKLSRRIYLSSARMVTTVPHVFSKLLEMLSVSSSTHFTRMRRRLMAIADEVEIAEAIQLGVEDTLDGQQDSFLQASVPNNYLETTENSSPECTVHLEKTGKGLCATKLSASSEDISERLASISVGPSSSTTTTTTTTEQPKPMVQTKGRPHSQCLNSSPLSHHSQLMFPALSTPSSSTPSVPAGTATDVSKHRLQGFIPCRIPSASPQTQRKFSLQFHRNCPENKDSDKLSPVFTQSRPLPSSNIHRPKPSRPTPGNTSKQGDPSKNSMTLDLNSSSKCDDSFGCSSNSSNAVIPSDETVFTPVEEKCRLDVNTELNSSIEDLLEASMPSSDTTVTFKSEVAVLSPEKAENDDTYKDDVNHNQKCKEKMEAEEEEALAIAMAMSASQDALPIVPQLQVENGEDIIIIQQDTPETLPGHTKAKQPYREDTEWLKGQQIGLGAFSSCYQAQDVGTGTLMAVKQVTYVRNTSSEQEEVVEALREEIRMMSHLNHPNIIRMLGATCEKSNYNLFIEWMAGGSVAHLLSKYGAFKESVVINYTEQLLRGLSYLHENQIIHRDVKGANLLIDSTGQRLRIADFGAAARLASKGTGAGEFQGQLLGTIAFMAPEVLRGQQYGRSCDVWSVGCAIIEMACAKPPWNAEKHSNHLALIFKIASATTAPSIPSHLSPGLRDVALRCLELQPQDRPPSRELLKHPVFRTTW
Text: as §1

[21] = molecular target: T21, panel of 371 human kinases (Homo sapiens, UniProt P21802); conditions: FGFR2; 0.1 μM; 10 μM ATP; read-out: % Enzyme Activity (relative to DMSO controls)
T21 construct: purchased Reaction Biology Corp
Text: as §1

Row | Structure (SMILES) | remaining activity at 0.1 µM [1] | remaining activity at 0.1 µM [2] | remaining activity at 0.1 µM [3] | remaining activity at 0.1 µM [4] | remaining activity at 0.1 µM [5] | remaining activity at 0.1 µM [6] | remaining activity at 0.1 µM [7] | remaining activity at 0.1 µM [8] | remaining activity at 0.1 µM [9] | remaining activity at 0.1 µM [10] | remaining activity at 0.1 µM [11] | remaining activity at 0.1 µM [12] | remaining activity at 0.1 µM [13] | remaining activity at 0.1 µM [14] | remaining activity at 0.1 µM [15] | remaining activity at 0.1 µM [16] | remaining activity at 0.1 µM [17] | remaining activity at 0.1 µM [18] | remaining activity at 0.1 µM [19] | remaining activity at 0.1 µM [20] | further results
1 | CN1CCN(Cc2ccc(-c3cnc4[nH]cc(-c5ccc6[nH]ccc6c5)c4c3)cc2)CC1 [Compound 1, 3-(1H-Indol-5-yl)-5-(4-((4-methylpiperazin-1-yl)methyl)phenyl)-1H-pyrrolo[2,3-b]pyridine, reference compound] | 97.2% | 82.8% | 101% | 92.3% | 102% | 48.1% | 95.4% | 101% | 91.6% | 101% | 76.7% | 130% | 95.3% | 97% | 91.6% | 94.9% | 97.6% | 107% | 100% | 102% | remaining activity at 0.1 µM [21]: 79.9%
2 | OCCN1CCN(Cc2ccc(-c3cnc4[nH]cc(-c5cccc(Cl)c5)c4c3)cc2)CC1 [Compound 12k, 2-(4-(4-(3-(3-Chlorophenyl)-1H-pyrrolo[2,3-b]pyridin-5-yl)benzyl)piperazin-1-yl)ethan-1-ol] | 101% | 59.5% | 87.5% | 102% | 106% | 71% | 95.4% | 86.7% | 94.1% | 103% | 91.5% | 97.3% | 96% | 93.4% | 95% | 64.8% | 85.6% | 101% | 89% | 94% | remaining activity at 0.1 µM [21]: 89.5%
